ChEMBL document CHEMBL4417631, “Oral peptide inhibitors of interleukin-23 receptor and their use to treat inflammatory bowel diseases” (2017)
Where a SMILES comes first, the peptide text is derived from it. [ ]: non-standard residue; d: D form. 2Nal = N[C@@H](Cc1ccc2ccccc2c1)C(=O)O; AEF = NCCOc1ccc(C[C@H](N)C(=O)O)cc1; Pen = CC(C)(S)[C@H](N)C(=O)O; hLeu = CC(C)CC[C@H](N)C(=O)O; Aib = CC(C)(N)C(=O)O

How the values were obtained:
Interleukin-23 receptor [1] = molecular target: T1, Interleukin-23 receptor (Homo sapiens, UniProt Q5VWK5); assay: Inhibition of interleukin-23 receptor in human DB cells assessed as reduction in IL-23-stimulated STAT3 phosphorylation incubated for 30 mins by HTRF assay; type: cell-based
T1 sequence (Q5VWK5 whole entry): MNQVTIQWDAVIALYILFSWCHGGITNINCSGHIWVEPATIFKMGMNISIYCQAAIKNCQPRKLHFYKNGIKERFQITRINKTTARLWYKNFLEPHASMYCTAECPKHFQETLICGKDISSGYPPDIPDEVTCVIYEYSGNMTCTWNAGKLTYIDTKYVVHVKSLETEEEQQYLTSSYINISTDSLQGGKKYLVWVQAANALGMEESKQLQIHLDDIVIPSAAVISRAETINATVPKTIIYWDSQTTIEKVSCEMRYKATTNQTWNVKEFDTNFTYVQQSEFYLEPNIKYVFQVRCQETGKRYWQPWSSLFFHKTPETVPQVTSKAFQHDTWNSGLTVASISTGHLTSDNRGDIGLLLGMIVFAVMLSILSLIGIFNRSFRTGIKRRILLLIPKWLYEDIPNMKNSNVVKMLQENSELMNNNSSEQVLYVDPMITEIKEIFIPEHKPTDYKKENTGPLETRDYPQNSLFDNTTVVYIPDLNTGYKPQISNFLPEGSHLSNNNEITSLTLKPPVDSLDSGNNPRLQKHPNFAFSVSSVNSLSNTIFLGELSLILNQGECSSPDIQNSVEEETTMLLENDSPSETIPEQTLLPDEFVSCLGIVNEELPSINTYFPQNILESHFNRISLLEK

Interleukin-23 receptor [2] = molecular target: T1, Interleukin-23 receptor; assay: Inhibition of interleukin-23 binding to human interleukin-23 receptor incubated for 2 hrs by competitive binding ELISA

| Structure (SMILES) | IC50 (Interleukin-23 receptor [1]) [nM] | IC50 (Interleukin-23 receptor [2]) [nM] |
| --- | --- | --- |
| CC(=O)NCCCC[C@H](NC(=O)C(C)(C)NC(=O)[C@H](Cc1ccc2ccccc2c1)NC(=O)[C@H](Cc1ccc(OCCN)cc1)NC(=O)[C@@H](NC(=O)[C@H](CCC(N)=O)NC(=O)[C@H](Cc1c[nH]c2ccccc12)NC(=O)[C@@H](NC(=O)[C@H](CCC(N)=O)NC(=O)[C@@H](NC(=O)[C@H](CCC(=O)O)NC(C)=O)C(C)(C)S)[C@@H](C)O)C(C)(C)S)C(=O)N[C@@H](CC(N)=O)C(=O)N[C@@H](CC(N)=O)C(N)=O (Ac-E[Pen]QTWQ[Pen][AEF][2Nal][Aib]K(Ac)NN-NH2) | < 10 |  |
| CC(=O)N[C@@H](CS)C(=O)N[C@@H](CCC(N)=O)C(=O)N[C@H](C(=O)N[C@@H](CCCNC(=N)N)C(=O)N[C@@H](CCC(N)=O)C(=O)N[C@@H](CS)C(=O)N[C@@H](Cc1ccc(O)cc1)C(=O)N[C@@H](Cc1c[nH]c2ccccc12)C(=O)N[C@@H](CCC(C)C)C(=O)N[C@@H](CCC(=O)O)C(=O)N[C@@H](CC(N)=O)C(=O)NCC(N)=O)[C@@H](C)O (Ac-CQTRQCYW[hLeu]ENG-NH2) |  | > 10000 |
| CC(=O)N[C@@H](CS)C(=O)N[C@@H](CCC(N)=O)C(=O)N[C@H](C(=O)N[C@@H](Cc1c[nH]c2ccccc12)C(=O)N[C@@H](CCC(N)=O)C(=O)N[C@@H](CS)C(=O)N[C@@H](Cc1ccc(O)cc1)C(=O)N[C@@H](Cc1ccc(Cl)c(Cl)c1)C(=O)N[C@@H](CCCNC(=N)N)C(=O)N[C@H](C(=O)N[C@@H](CC(N)=O)C(=O)NCC(=O)NCCOCC(=O)N[C@H](CCCCN)C(N)=O)C(C)C)[C@@H](C)O |  | > 30000 |
| CC(=O)N[C@@H](CS)C(=O)N[C@@H](C)C(=O)N[C@@H](CC(=O)O)C(=O)N[C@@H](Cc1c[nH]c2ccccc12)C(=O)N[C@H](C(=O)N[C@@H](CS)C(=O)N[C@@H](Cc1ccc(O)cc1)C(=O)N[C@@H](Cc1c[nH]c2ccccc12)C(=O)N[C@@H](Cc1cnc[nH]1)C(=O)N[C@H](C(=O)N[C@@H](Cc1ccccc1)C(=O)NCC(=O)N[C@@H](C)C(=O)N1CCC[C@H]1C(=O)N[C@H](CCCCN)C(=O)O)[C@@H](C)O)C(C)C |  | 100 to 1000 |

Results, then the compound that gave them:

| IC50 (Interleukin-23 receptor [1]) [nM] | IC50 (Interleukin-23 receptor [2]) [nM] | Structure (SMILES) |
| --- | --- | --- |
| < 10 |  | COc1ccc(C[C@H](NC(=O)[C@@H](NC(=O)[C@H](CCC(N)=O)NC(=O)[C@H](Cc2c[nH]c3ccccc23)NC(=O)[C@@H](NC(=O)[C@H](CCC(N)=O)NC(=O)[C@@H](NC(C)=O)C(C)(C)S)[C@@H](C)O)C(C)(C)S)C(=O)N[C@@H](Cc2ccc3ccccc3c2)C(=O)NC(C)(C)C(=O)N[C@@H](CCCCNC(C)=O)C(=O)N[C@@H](CC(N)=O)C(=O)N[C@@H](C)C(N)=O)cc1 |
|  | > 1000 | CC(=O)N[C@@H](CS)C(=O)N[C@@H](C)C(=O)N[C@@H](CC(=O)O)C(=O)N[C@@H](Cc1c[nH]c2ccccc12)C(=O)N[C@H](C(=O)N[C@@H](CS)C(=O)N[C@@H](Cc1ccc(O)cc1)C(=O)N[C@@H](Cc1ccc(-c2ccccc2)cc1)C(=O)N[C@@H](Cc1cnc[nH]1)C(=O)N[C@H](C(=O)N[C@@H](Cc1ccccc1)C(=O)NCC(=O)NCCOCC(=O)N[C@H](CCCCN)C(N)=O)[C@@H](C)O)C(C)C |
|  | 1000 to 10000 | COc1ccc(C[C@H](NC(=O)[C@@H](NC(=O)[C@H](CCC(N)=O)NC(=O)[C@H](Cc2c[nH]c3ccccc23)NC(=O)[C@@H](NC(=O)[C@H](CCC(N)=O)NC(=O)[C@@H](NC(=O)c2cc(O)c(O)c(O)c2)C(C)(C)S)[C@@H](C)O)C(C)(C)S)C(=O)N[C@@H](Cc2ccc3ccccc3c2)C(=O)N[C@@](C)(CCCCN)C(=O)N[C@@H](CCCCNC(C)=O)C(=O)N[C@@H](CC(N)=O)C(=O)NCC(N)=O)cc1 |
|  | > 1000 | NC(=O)CC[C@H](NC(=O)[C@@H](N)CS)C(=O)N[C@@H](CO)C(=O)N[C@@H](Cc1c[nH]c2ccccc12)C(=O)N[C@@H](CCC(=O)O)C(=O)N[C@@H](CS)C(=O)N[C@@H](Cc1ccc(O)cc1)C(=O)N[C@@H](Cc1c[nH]c2ccccc12)C(=O)N[C@@H](Cc1cnc[nH]1)C(=O)N[C@@H](Cc1ccc(O)cc1)C(=O)N[C@@H](Cc1ccc(O)cc1)C(=O)NCC(N)=O (H-CQSWECYWHYYG-NH2) |
